Experimental data as given in the OligoGym collection.
“And” between values parts separate entries of the source, which are not always exact repeats. Identical values can stand only once. After the bases stand the sugars from the 5' end (letter, count) and the backbone: PS all phosphorothioate, else s phosphorothioate and o phosphodiester by linkage. Methylation of C is not given here. e = 2'-O-(2-methoxyethyl) (MOE); k = constrained ethyl (cEt); d = 2'-deoxy (DNA)

The sequences below were run against IRF4. Conditions: ASO, MM.1R, 0.0625 µM.

Sequence	target mRNA inhibition [%]
GAGTGAGATGCGGAGG (sugars k3 d10 k3, PS)	6

Same assay, conditions: ASO, MM.1R, 0.074 µM

Sequence	target mRNA inhibition [%]
GAAGTTTACACTGGAT (sugars kkdddddddddekeke, PS)	14
GCAGTGATGTCAGGTT (sugars kkdddddddddkdkdk, PS)	15
GCATTTTATCATCCGA (sugars e1 k2 d9 k2 e2, PS)	18

Same assay, conditions: ASO, MM.1R, 0.222 µM

Sequence	target mRNA inhibition [%]
GAAGTTTACACTGGAT (sugars kkdddddddddekeke, PS)	26
GCAGTGATGTCAGGTT (sugars kkdddddddddkdkdk, PS)	32
GCATTTTATCATCCGA (sugars e1 k2 d9 k2 e2, PS)	34

Same assay, conditions: ASO, MM.1R, 0.25 µM

Sequence	target mRNA inhibition [%]
GAGTGAGATGCGGAGG (sugars k3 d10 k3, PS)	0

Same assay, conditions: ASO, MM.1R, 0.666 µM

Sequence	target mRNA inhibition [%]
GAAGTTTACACTGGAT (sugars kkdddddddddekeke, PS)	50
GCAGTGATGTCAGGTT (sugars kkdddddddddkdkdk, PS)	58
GCATTTTATCATCCGA (sugars e1 k2 d9 k2 e2, PS)	57

Same assay, conditions: ASO, MM.1R, 1 µM

Sequence	target mRNA inhibition
GAAGTTTACACTGGAT (sugars kkdddddddddekeke, PS)	58%
GAAGTTTACACTGGAT (sugars kkkdddddddddkeke, PS)	49%
GAATCTTGGCAGGGAG (sugars k3 d10 k3, PS)	0%
GAATTCCAAACCTTAA (sugars k3 d10 k3, PS)	4%
GACACTTTTAGAGAGG (sugars k2 d9 e3 k2, PS)	25%
GACACTTTTAGAGAGG (sugars kddddddddddkekek, PS)	23%
GACACTTTTAGAGAGG (sugars kdddddddddkekeke, PS)	9%
GACACTTTTAGAGAGG (sugars kkddddddddddkeke, PS)	9%
GACACTTTTAGAGAGG (sugars kkdddddddddkdkdk, PS)	14%
GACAGTGACTTGCATC (sugars kkdddddddddkekek, PS)	5%
GACTTATTTGTGGCTC (sugars k3 d10 k3, PS)	20%
GAGAGACGAAAACAGC (sugars k3 d10 k3, PS)	5%
GAGCCAGAGCAGTAAA (sugars k3 d10 k3, PS)	-2%
GAGGAAGTCCCCTTCC (sugars k3 d10 k3, PS)	4%
GATCCTGAGAGTAAAC (sugars k3 d10 k3, PS)	6%
GATGTGATAGCTGAGC (sugars kkdddddddddkdkdk, PS)	34%
GATTATATACTGGTTG (sugars kkddddddddddkeke, PS)	45%
GCAGTGATGTCAGGTT (sugars k3 d10 k3, PS)	39%
GCAGTGATGTCAGGTT (sugars kkdddddddddkdkdk, PS)	53%
GCATTTTATCATCCGA (sugars e1 k2 d9 k2 e2, PS)	61%
GCATTTTATCATCCGA (sugars k2 d9 e3 k2, PS)	38%
GCATTTTATCATCCGA (sugars kkddddddddddkeke, PS)	39%
GCATTTTATCATCCGA (sugars kkdddddddddekeke, PS)	44%
GCATTTTATCATCCGA (sugars kkdddddddddkdkdk, PS)	16%
GCCGATCATCAACTTC (sugars k3 d10 k3, PS)	26%
GCCTTCAGCGGTTTCC (sugars k3 d10 k3, PS)	4%
GCGAGTTGGCACAATT (sugars k3 d10 k3, PS)	27% and 37%
GCTAACTTACAGGACT (sugars k3 d10 k3, PS)	-8%
GCTAGATTCTCCCTGC (sugars k3 d10 k3, PS)	-13%
GCTAGCAGGAGCGAGA (sugars k3 d10 k3, PS)	-5%

Same assay, conditions: ASO, MM.1R, 2 µM

Sequence	target mRNA inhibition [%]
GAAGTTTACACTGGAT (sugars kkdddddddddekeke, PS)	59
GCAGTGATGTCAGGTT (sugars kkdddddddddkdkdk, PS)	79
GCATTTTATCATCCGA (sugars e1 k2 d9 k2 e2, PS)	83

Same assay, conditions: ASO, MM.1R, 4 µM

Sequence	target mRNA inhibition [%]
GAGTGAGATGCGGAGG (sugars k3 d10 k3, PS)	67

Same assay, conditions: ASO, SK-MEL-28, 0.185 µM

Sequence	target mRNA inhibition
GACTCCATGAGGTTTT (sugars k3 d10 k3, PS)	14% and 10% and 1%
GCATTTTCCAGAAAAT (sugars k3 d10 k3, PS)	13%

Same assay, conditions: ASO, SK-MEL-28, 4 µM

Sequence	target mRNA inhibition [%]
GAAGGGAACAGATAGT (sugars k3 d10 k3, PS)	17
GAAGTTTACTAACTGG (sugars k3 d10 k3, PS)	57
GAATTTACAGCATCTA (sugars k3 d10 k3, PS)	76
GACAAGAACTGCTGTG (sugars k3 d10 k3, PS)	15
GACAATGTTGTATGAA (sugars k3 d10 k3, PS)	72
GACATTGGTACGGGAT (sugars k3 d10 k3, PS)	36
GACCAACTGGAAAACC (sugars k3 d10 k3, PS)	56
GACCAATTTATGCCAT (sugars k3 d10 k3, PS)	38
GACCCACACCAGGAAA (sugars k3 d10 k3, PS)	2
GACCTAACTAAATGTC (sugars k3 d10 k3, PS)	-18
GACGGAGGCGGCAGAC (sugars k3 d10 k3, PS)	-43
GACTAACAGGGAGACT (sugars k3 d10 k3, PS)	-9
GACTCCATGAGGTTTT (sugars k3 d10 k3, PS)	70
GACTCGGAGCTGAGGG (sugars k3 d10 k3, PS)	23
GACTTAAGCTAAACTC (sugars k3 d10 k3, PS)	58
GAGAAAACCCCCCTCT (sugars k3 d10 k3, PS)	17
GAGAAACGAGCCAGTG (sugars k3 d10 k3, PS)	39
GAGAAGCATATTCCAA (sugars k3 d10 k3, PS)	57
GAGACCTACAAAATGC (sugars k3 d10 k3, PS)	11
GAGCAAACCCTGCACT (sugars k3 d10 k3, PS)	-16
GAGCAAAGCAAGTGTC (sugars k3 d10 k3, PS)	42
GAGCAATGAACGGAAG (sugars k3 d10 k3, PS)	72
GAGCACTGCATGAAAG (sugars k3 d10 k3, PS)	51
GAGCAGTAAACGCAAG (sugars k3 d10 k3, PS)	54

Sequence	target mRNA inhibition [%]
GAGCATCAACAAAGCC (sugars k3 d10 k3, PS)	58
GAGCATCCGCTTGGAG (sugars k3 d10 k3, PS)	31
GAGCTGTGATGAGCTT (sugars k4 d8 k4, PS)	5
GAGGAAGCCGTTCCTT (sugars k3 d10 k3, PS)	51
GAGGAATGGCGGATAG (sugars k3 d10 k3, PS)	31
GAGGAGGAGGACTTAT (sugars k3 d10 k3, PS)	51
GAGGGTCAAAAAGATG (sugars k3 d10 k3, PS)	33
GAGTCACCTGGAATCT (sugars k3 d10 k3, PS)	43
GAGTCCCCGGCTCCTC (sugars k3 d10 k3, PS)	25
GAGTCTTTGAGGCTGC (sugars k3 d10 k3, PS)	34
GATAAAGGCTGAACTG (sugars k3 d10 k3, PS)	67
GATAATATACCCCAAA (sugars k3 d10 k3, PS)	33
GATCATCAACTTCTTA (sugars k3 d10 k3, PS)	47
GATGTATACATCACTG (sugars k3 d10 k3, PS)	70
GATTCATTTCCTTCAC (sugars k3 d10 k3, PS)	49
GCAAAACCCCTCAAGC (sugars k3 d10 k3, PS)	20
GCAATTGAAATGGAGC (sugars k3 d10 k3, PS)	24
GCACAAGCATAAAAGG (sugars k3 d10 k3, PS)	16
GCACAATTCTCTGAGA (sugars k3 d10 k3, PS)	34
GCACAGAACACCTGAT (sugars k3 d10 k3, PS)	56
GCACAGACATACCTAC (sugars k3 d10 k3, PS)	46
GCACTGCATGAAAGTG (sugars k3 d10 k3, PS)	40
GCACTGGCATCGAGAC (sugars k3 d10 k3, PS)	57
GCAGAGCAATTTACAT (sugars k3 d10 k3, PS)	66

Sequence	target mRNA inhibition [%]
GCAGAGGGACCCACAC (sugars k3 d10 k3, PS)	21
GCAGGTTTCATTTCAT (sugars k3 d10 k3, PS)	44
GCATAAAAGGTTCCTG (sugars k3 d10 k3, PS)	26
GCATAGCATTATCTAC (sugars k3 d10 k3, PS)	51
GCATCTAAGGCAAGCT (sugars k3 d10 k3, PS)	34
GCATTTTCCAGAAAAT (sugars k3 d10 k3, PS)	64
GCCAAGACCAGCTCTT (sugars k3 d10 k3, PS)	30
GCCAAGAGGTGCGAGT (sugars k3 d10 k3, PS)	35
GCCAAGTAATTTTAAG (sugars k3 d10 k3, PS)	35
GCCAATTCCACTTTAT (sugars k3 d10 k3, PS)	64
GCCACAACTCTCGCCT (sugars k3 d10 k3, PS)	25
GCCATTCGAGGTGATT (sugars k3 d10 k3, PS)	56
GCCATTGTCCTCTGGG (sugars k3 d10 k3, PS)	25
GCCCACATAATCCAGT (sugars k3 d10 k3, PS)	22
GCCCGGAGGAAGGGCG (sugars k3 d10 k3, PS)	-6
GCCGCTGTCGATCTGG (sugars k3 d10 k3, PS)	24
GCCTTAATGGTGATTT (sugars k3 d10 k3, PS)	26
GCGAAGGCTCCTACCC (sugars k3 d10 k3, PS)	-15
GCGACTAACTCTCCTG (sugars k3 d10 k3, PS)	70
GCGGACACGCCCGACC (sugars k3 d10 k3, PS)	15
GCGGAGCTTCCCGTTG (sugars k3 d10 k3, PS)	33
GCTACATTTCTTATGC (sugars k3 d10 k3, PS)	20

Same assay, conditions: ASO, SK-MEL-28, 5 µM

Sequence	target mRNA inhibition
GACTCCATGAGGTTTT (sugars k3 d10 k3, PS)	58% and 55% and 77%
GCATTTTCCAGAAAAT (sugars k3 d10 k3, PS)	74%

Same assay, conditions: ASO, SK-MEL-28, 15 µM

Sequence	target mRNA inhibition
GACTCCATGAGGTTTT (sugars k3 d10 k3, PS)	76% and 78% and 87%
GCATTTTCCAGAAAAT (sugars k3 d10 k3, PS)	89%
